Measurements: patent US9102670B2, “Pyrido-, pyrazo- and pyrimido-pyrimidine derivatives as mTOR inhibitors” (KuDOS Pharmaceuticals Limited, priority 2006, dated 2015)

System: phosphorylation of Serine 473 in Akt
Assay: In Vitro Phospho-Ser473 Akt Assay in MDA-MB-468 cells
Assay type: cell-based
Conditions: Homo sapiens, MDA-MB-468, read-out: IC50 values against mTOR, phospho-Ser473 Akt assay, MDA-MB-468 cells

Structure (SMILES)	IC50 [nM]
COc1ccc(-c2ccc3c(N4CCOC[C@@H]4C)nc(N4CCOC[C@@H]4C)nc3n2)cc1CNC1CCCCCCC1 [Example 4bf]	< 100
C[C@H]1COCCN1c1nc(N2CCOC[C@@H]2C)c2ccc(-c3ccc(CN4CC[C@@H](O)C4)cc3)nc2n1 [Example 4c]	< 100
C[C@H]1COCCN1c1nc(N2CCOC[C@@H]2C)c2ccc(-c3ccc(CN4CC[C@H](O)C4)cc3)nc2n1 [Example 4d]	< 100
C[C@H]1COCCN1c1nc(N2CCOC[C@@H]2C)c2ccc(-c3ccc(CNC4CCOCC4)cc3)nc2n1 [Example 4e]	< 100
CCOCc1cccc(-c2ccc3c(N4CCOC[C@@H]4C)nc(N4CCOC[C@@H]4C)nc3n2)c1 [Example 4g]	< 300
C[C@H]1COCCN1c1nc(N2CCOC[C@@H]2C)c2ccc(-c3cccc(CNCCO)c3)nc2n1 [Example 4h]	< 100
C[C@H]1COCCN1c1nc(N2CCOC[C@@H]2C)c2ccc(-c3cccc(CN)c3)nc2n1 [Example 4i]	< 100
C[C@H]1COCCN1c1nc(N2CCOC[C@@H]2C)c2ccc(-c3cccc(CNC4CC4)c3)nc2n1 [Example 4j]	< 100
CC(C)NCc1cccc(-c2ccc3c(N4CCOC[C@@H]4C)nc(N4CCOC[C@@H]4C)nc3n2)c1 [Example 4k]	< 100
CNCc1cccc(-c2ccc3c(N4CCOC[C@@H]4C)nc(N4CCOC[C@@H]4C)nc3n2)c1 [Example 4l]	< 100
C[C@H]1COCCN1c1nc(N2CCOC[C@@H]2C)c2ccc(-c3cccc(CNC4CCOCC4)c3)nc2n1 [Example 4m]	< 100
C[C@H]1COCCN1c1nc(N2CCOC[C@@H]2C)c2ccc(-c3cccc(CNCC4CC4)c3)nc2n1 [Example 4n]	< 100
COCCNCc1cccc(-c2ccc3c(N4CCOC[C@@H]4C)nc(N4CCOC[C@@H]4C)nc3n2)c1 [Example 4o]	< 100
C[C@H]1COCCN1c1nc(N2CCOC[C@@H]2C)c2ccc(-c3cccc(CNc4cc[nH]n4)c3)nc2n1 [Example 4p]	< 300
C[C@H]1COCCN1c1nc(N2CCOC[C@@H]2C)c2ccc(-c3cccc(Cn4ccnc4)c3)nc2n1 [Example 4q]	< 300
C[C@H]1COCCN1c1nc(N2CCOC[C@@H]2C)c2ccc(-c3cccc(CN4CC[C@@H](O)C4)c3)nc2n1 [Example 4r]	< 100
C[C@H]1COCCN1c1nc(N2CCOC[C@@H]2C)c2ccc(-c3cccc(CN4CC[C@H](O)C4)c3)nc2n1 [Example 4s]	< 100
C[C@H]1COCCN1c1nc(N2CCOC[C@@H]2C)c2ccc(-c3ccc(F)c(CN)c3)nc2n1 [Example 4u]	< 100
CC(C)NCc1cc(-c2ccc3c(N4CCOC[C@@H]4C)nc(N4CCOC[C@@H]4C)nc3n2)ccc1F [Example 4w]	< 100
CNCc1cc(-c2ccc3c(N4CCOC[C@@H]4C)nc(N4CCOC[C@@H]4C)nc3n2)ccc1F [Example 4x]	< 100
C[C@H]1COCCN1c1nc(N2CCOC[C@@H]2C)c2ccc(-c3ccc(F)c(CNC4CCOCC4)c3)nc2n1 [Example 4y]	< 100
C[C@H]1COCCN1c1nc(N2CCOC[C@@H]2C)c2ccc(-c3ccc(F)c(CNCC4CC4)c3)nc2n1 [Example 4z]	< 100
CC(=O)NCc1cccc(-c2ccc3c(N4CCOC[C@@H]4C)nc(N4CCOC[C@@H]4C)nc3n2)c1 [Example 5a]	< 100
COCC(=O)NCc1cccc(-c2ccc3c(N4CCOC[C@@H]4C)nc(N4CCOC[C@@H]4C)nc3n2)c1 [Example 5b]	< 300
C[C@H]1COCCN1c1nc(N2CCOC[C@@H]2C)c2ccc(-c3cccc(CNC(=O)C4CC4)c3)nc2n1 [Example 5c]	< 300
C[C@H]1COCCN1c1nc(N2CCOC[C@@H]2C)c2ccc(-c3cccc(CNC(=O)C4CCC4)c3)nc2n1 [Example 5e]	< 300

Structure (SMILES)	IC50 [nM]
C[C@H]1COCCN1c1nc(N2CCOC[C@@H]2C)c2ccc(-c3cccc(CNC(=O)C(F)(F)F)c3)nc2n1 [Example 5g]	< 300
C[C@H]1COCCN1c1nc(N2CCOC[C@@H]2C)c2ccc(-c3cccc(CN(C)C(=O)C(F)(F)F)c3)nc2n1 [Example 5n]	< 300
CC(=O)NCc1ccc(-c2ccc3c(N4CCOC[C@@H]4C)nc(N4CCOC[C@@H]4C)nc3n2)cc1 [Example 5q]	< 100
COCC(=O)N(C)Cc1ccc(-c2ccc3c(N4CCOC[C@@H]4C)nc(N4CCOC[C@@H]4C)nc3n2)cc1 [Example 5s]	< 300
C[C@H]1COCCN1c1nc(N2CCOC[C@@H]2C)c2ccc(-c3ccc(F)c(CNC(=O)C4CC4)c3)nc2n1 [Example 5v]	< 300
C[C@H]1COCCN1c1nc(N2CCOC[C@@H]2C)c2ccc(-c3ccoc3CO)nc2n1 [Example 6a]	< 300
CNCc1ccc(-c2ccc3c(N4CCOC[C@@H]4C)nc(N4CCOC[C@@H]4C)nc3n2)o1 [Example 7c]	< 100
CCNCc1ccc(-c2ccc3c(N4CCOC[C@@H]4C)nc(N4CCOC[C@@H]4C)nc3n2)o1 [Example 7d]	< 100
C[C@H]1COCCN1c1nc(N2CCOC[C@@H]2C)c2ccc(-c3ccc(CNC4CCOCC4)o3)nc2n1 [Example 7f]	< 100
C[C@H]1COCCN1c1nc(N2CCOC[C@@H]2C)c2ccc(-c3ccc(CNCC4CC4)o3)nc2n1 [Example 7g]	< 100
CC(C)NCc1ccc(-c2ccc3c(N4CCOC[C@@H]4C)nc(N4CCOC[C@@H]4C)nc3n2)o1 [Example 7k]	< 100
C[C@H]1COCCN1c1nc(N2CCOC[C@@H]2C)c2ccc(-c3cccc(C(=O)NCCO)c3)nc2n1 [Example 8a]	< 100
COc1ccc(-c2ccc3c(N4CCOC[C@@H]4C)nc(N4CCOC[C@@H]4C)nc3n2)cc1C(=O)NCCO [Example 8b]	< 100
COCc1cc(-c2ccc3c(N4CCOC[C@@H]4C)nc(N4CCOC[C@@H]4C)nc3n2)ccc1F [Example 9a]	< 300
C[C@@H]1CN(c2nc(N3CCOC[C@@H]3C)c3ncc(-c4ccccc4)nc3n2)C[C@H](C)O1 [Example 12a]	< 100
Cc1ccc(-c2cnc3c(N4CCOC[C@@H]4C)nc(N4CCOC[C@@H]4C)nc3n2)cc1 [Example 12c]	< 100
C[C@H]1COCCN1c1nc(N2CCOC[C@@H]2C)c2ncc(-c3ccccc3)nc2n1 [Example 12d]	< 300
C[C@H]1COCCN1c1nc(N2CCOC[C@@H]2C)c2ccc(-c3ccc(OCCN(C)C)nc3)nc2n1 [Example 13b]	< 300
COc1ccc(-c2ccc3c(N4CCOC[C@@H]4C)nc(N4CCOC[C@@H]4C)nc3n2)cc1C(N)=O [Example 14b]	< 100
COc1ccc(-c2ccc3c(N4CCOC[C@@H]4C)nc(N4CCCC[C@H]4C)nc3n2)cc1CO [Example 18a]	< 100
COc1ccc(-c2ccc3c(N4CCOC[C@@H]4C)nc(N4CC[C@H](O)C4)nc3n2)cc1CO [Example 18ab]	< 300
COc1ccc(-c2ccc3c(N4CCOC[C@@H]4C)nc(N4CCC(N5CCOCC5)CC4)nc3n2)cc1CO [Example 18ac]	< 100
COc1ccc(-c2ccc3c(N4CCOC[C@@H]4C)nc(N4CCC(N)CC4)nc3n2)cc1CO [Example 18ad]	< 100
COc1ccc(-c2ccc3c(N4CCOC[C@@H]4C)nc(N4CC(C)CC(C)C4)nc3n2)cc1CO (stereo partly shown) [Example 18ae]	< 100
COc1ccc(-c2ccc3c(N4CCOC[C@@H]4C)nc(N4CCC(C(F)(F)F)CC4)nc3n2)cc1CO [Example 18af]	< 300
COC(=O)[C@@H]1CCCN1c1nc(N2CCOC[C@@H]2C)c2ccc(-c3ccc(OC)c(CO)c3)nc2n1 [Example 18ah]	< 100

Same assay, conditions: Homo sapiens, MDA-MB-468, read-out: IC50 values against mTOR, phospho-Ser473 Akt assay, MDA-MB-468 cells, upper bound

Structure (SMILES)	IC50 [nM]
C[C@H]1COCCN1c1nc(N2CCOC[C@@H]2C)c2ccc(-c3cccc(CS(C)(=O)=O)c3)nc2n1 [Example 4t]	< 1000
C[C@H]1COCCN1c1nc(N2CCOC[C@@H]2C)c2ccc(-c3ccc(F)c(CNC4CC4)c3)nc2n1 [Example 4v]	< 1000
CC(C)C(=O)NCc1cccc(-c2ccc3c(N4CCOC[C@@H]4C)nc(N4CCOC[C@@H]4C)nc3n2)c1 [Example 5d]	< 1000
CC(C)CC(=O)NCc1cccc(-c2ccc3c(N4CCOC[C@@H]4C)nc(N4CCOC[C@@H]4C)nc3n2)c1 [Example 5f]	< 1000
CC(=O)N(C)Cc1ccc(-c2ccc3c(N4CCOC[C@@H]4C)nc(N4CCOC[C@@H]4C)nc3n2)cc1 [Example 5r]	< 1000
CC(=O)NCc1cc(-c2ccc3c(N4CCOC[C@@H]4C)nc(N4CCOC[C@@H]4C)nc3n2)ccc1F [Example 5t]	< 1000
COCC(=O)NCc1cc(-c2ccc3c(N4CCOC[C@@H]4C)nc(N4CCOC[C@@H]4C)nc3n2)ccc1F [Example 5u]	< 1000
CC(C)C(=O)NCc1cc(-c2ccc3c(N4CCOC[C@@H]4C)nc(N4CCOC[C@@H]4C)nc3n2)ccc1F [Example 5w]	< 1000
C[C@H]1COCCN1c1nc(N2CCOC[C@@H]2C)c2ccc(-c3ccc(F)c(CNC(=O)C4CCC4)c3)nc2n1 [Example 5x]	< 1000
CC(C)CC(=O)NCc1cc(-c2ccc3c(N4CCOC[C@@H]4C)nc(N4CCOC[C@@H]4C)nc3n2)ccc1F [Example 5y]	< 1000
C[C@H]1COCCN1c1nc(N2CCOC[C@@H]2C)c2ccc(-c3ccc(F)c(CNC(=O)C(F)(F)F)c3)nc2n1 [Example 5z]	< 1000
C[C@H]1COCCN1c1nc(N2CCOC[C@@H]2C)c2ccc(-c3ccc(CNC4CC4)o3)nc2n1 [Example 7e]	< 1000
C[C@H]1COCCN1c1nc(N2CCOC[C@@H]2C)c2ccc(-c3ccc(CNc4cc[nH]n4)o3)nc2n1 [Example 7i]	< 1000
C[C@H]1COCCN1c1nc(N2CCOC[C@@H]2C)c2ccc(-c3ccc(CNCC(N)=O)o3)nc2n1 [Example 7j]	< 1000
Cc1ccc(-c2cnc3c(N4CCOC[C@@H]4C)nc(N4C[C@@H](C)O[C@@H](C)C4)nc3n2)cc1 [Example 12b]	< 1000
COC(=O)[C@@H]1C[C@@H](O)CN1c1nc(N2CCOC[C@@H]2C)c2ccc(-c3ccc(OC)c(CO)c3)nc2n1 [Example 18aa]	< 1000
COc1ccc(-c2ccc3c(N4CCOC[C@@H]4C)nc(N4CCC5CCCCC5C4)nc3n2)cc1CO (stereo partly shown) [Example 18ag]	< 1000
COc1ccc(-c2ccc3c(N4CCOC[C@@H]4C)nc(N4CCC(N5CCCC5)CC4)nc3n2)cc1CO [Example 18ai]	< 1000
